Holding throughout (assay type): cell-based, human
One data set relates to p-serin 422 of EIF4B. As to the kind of experiment: Cellular fingerprint assay (Luminex): EIF4B. Conditions: 24 h; all culture conditions (amiodarone: highest concentration). The protocol:
(§1) To measure intracellular drug response markers, HepG2 cells cultivated in standard medium containing FBS, Advanced DMEM/F12 or TCM® Serum Replacement were seeded in 384-well plates and incubated for 24 h. After incubation, cells were treated with selected MIP-DILI compounds or negative controls in a three-fold dilution series performed in triplicates using the Tecan 300e Dispenser ([Dragovic et al., 2016]). Additionally, cells were treated with assay specific control substances (see Supplementary Table S2). Treatment was performed for 24 h. After treatment, media was carefully aspirated und cells were lysed by adding 40 µL lysis buffer (Supplementary Table S3) to each well. The plates were incubated for 30 min at 4°C and either stored at −80°C or used immediately.
(§2) Intracellular drug response markers were assessed using the Luminex technology. Color-coded beads from NMI specific for one analyte each were used to qualify and quantify p-serin 10 of Histon H3 (cell division marker), LC3B (autophagy marker), PARP (cell death/apoptosis marker), HSP70 (stress response marker), p-serin 2/5 of RNA-Polymerase II (protein transcription marker), p-serin 422 of EIF4B (protein synthesis marker) and HIF1-alpha (oxidative stress marker).
(§3) For hybridization, 25 μL cell lysate of each sample was transferred to a fresh 384-well plate. […]

The test system of the next data set is LC3B (autophagy marker). The data set is described as follows: Cellular fingerprint assay (Luminex): LC3B. Conditions: 24 h. The protocol: as §1, §2, §3
Data set [1] deals with p-serin 2/5 of RNA-Polymerase II. The data set is described as follows: Cellular fingerprint assay (Luminex): RNA Pol II. Conditions: 24 h. The protocol: as §1, §2
(§4) For hybridization, 25 μL cell lysate of each sample was transferred to a fresh 384-well plate. 25 μL prepared bead mix and 25 µL assay buffer were added and the plate was sealed. Plates were incubated for 16–20 h at 4°C and 600 rpm. The TS Pro thermal plate shaker from CellMedia was used for all incubation steps.
(§5) After incubation the plates were washed and successively incubated with 15 µL detection antibody (1 h, RT, 650 rpm) and 15 µL streptavidin, R-phycoerythrin conjugate (SAPE; 45 min, RT, 650 rpm). After each step, the plates were washed three times with wash buffer. Before measurement, 90 µL assay buffer was added to each well and the plates were incubated for 10 min at RT and 700 rpm. Measurement was performed using the Luminex™ FlexMAP 3D from ThermoFisher.

Data set [2] deals with HSP70 (stress response marker). As to the kind of experiment: Cellular fingerprint assay (Luminex): HSP70. Conditions: 24 h. The protocol: as §1, §2, §4, §5
Data set [3] deals with PARP (cell death/apoptosis marker). As to the kind of experiment: Cellular fingerprint assay (Luminex): PARP. Conditions: 24 h. The protocol: as §1, §2, §4, §5
Data set [4] relates to GSH content of HepG2 cells. The data set is described as follows: GSH-Glo glutathione assay (oxidative stress). Conditions: 24 h. The protocol:
To assess oxidative stress in cells in response to compound treatment, the GSH-Glo™ Glutathione Assay from Promega was used according to manufacturer’s instructions (V6912). HepG2 cells cultivated in standard medium containing FBS, Advanced DMEM/F12 or TCM® Serum Replacement were seeded in 384-well plates, incubated for 24 h, and subsequently treated with the MIP-DILI reference compounds, negative controls, or internal controls in a three-fold dilution series performed in triplicates using the Tecan 300e Dispenser ([Dragovic et al., 2016]). Treatment was performed for 24 h.
Assay reagents and plates were first equilibrated to room temperature. GSH-Glo™ Reagent 1x was obtained by diluting Luciferin-NT substrate and Glutathione S-Transferase 1:100 in GSH-Glo™ Reaction Buffer. Luciferin Detection reagent was dissolved in Reconstitution Buffer with Esterase.
The medium was aspirated, GSH-Glo™ Reagent 1x was added to the cells and plates were shaken for 2 min and subsequently incubated for 30 min at room temperature protected from light. Afterwards, reconstituted Luciferin Detection Reagent was added, and cells were again shaken for 2 min before incubation for 15 min at room temperature in the dark. Luminescence was measured using the Varioskan Plate Reader from Thermo Fisher.

Data set [5] has as its system HepG2 cells. The data set is described as follows: Cellular fingerprint assay: overall marker response / cell death. Conditions: 24 h. The protocol:
as §1, §2, §3

For data set [6], the system named is HepG2 cells. The data set is described as follows: Mitochondrial toxicity assay (Glucose/Galactose assay). To be noted: HepG2 cultured in Advanced DMEM/F12; 2 h treatment. The protocol: To assess mitochondrial toxicity, the Glucose/Galactose Assay was used. HepG2 cells cultivated in standard medium containing FBS, Advanced DMEM/F12 or TCM® Serum Replacement were seeded in 384-well plates and incubated for 48 h. Cells were washed once, and subsequently switched to DMEM (ThermoFisher, 11966025) supplemented with sodium pyruvate, HEPES and either 25 mM D-glucose or 10 mM D-galactose without FBS to avoid residual glucose. Cells were pre-incubated for 4 h before treatment with the MIP-DILI reference compounds, negative controls or internal controls ([Dragovic et al., 2016]). Treatment was performed in a three-fold dilution series in triplicates using the Tecan 300e Dispenser. Cells were treated for 2 h, and the read-out was performed by measuring cell viability using the CellTiter-Glo® reagent as described previously. IC50 values were obtained from dose response curves in GraphPad Prism using a log(inhibitor) vs. response model (variable slope, four parameters, bottom constraint = 0). Mitochondrial toxicity was assessed by calculating the IC50Glc/IC50Gal ratio and the threshold for risk for mitochondrial toxicity was set at >2.

Data set [7] deals with HIF1-alpha (oxidative stress marker). The data set is described as follows: Cellular fingerprint assay (Luminex): HIF-1-alpha. To be noted: 24 h. The protocol:
as §1, §2, §4, §5

Setting [8] is: all culture conditions (amiodarone: highest concentration).
[9] abbreviates: highest concentration, across all media.
The mark [10] stands for this setting: comparable results for all culture conditions.

*1 amine or outer side, *2 acyl side, *3 side chain or, on linkers, in order; H or OH if unused. Where a SMILES comes first, the peptide text is derived from it. Bridges are numbered along the chain shown (N, C = ends). Roman numbers before positions name the chains, in order. [ ]: non-standard residue; d: D form. Actinocin(9to1) = Cc1c2oc3c(C)ccc(C(=O)[*:1])c3nc-2c(C(=O)[*:2])c(N)c1=O; NMeV = CN[C@H](C(=O)O)C(C)C; Sar = CNCC(=O)O

From PMC11621109, “Increasing sustainability and reproducibility of in vitro toxicology applications: serum-free cultivation of HepG2 cells” (Frontiers in Toxicology, 2024) come the findings set out here.

With `CCCCc1oc2ccccc2c1C(=O)c1cc(I)c(OCCN(CC)CC)c(I)c1` [Amiodarone], the EIF4B levels entry in the data set with p-serin 422 of EIF4B is recorded as “decrease”. Further, in the data set with LC3B (autophagy marker) (second highest concentration, similar in all conditions), the LC3B levels entry was “elevated LC3B levels”. Also, in [1] (setting [8]), the “RNA Pol II levels” value was “decrease”. Besides, the HSP70 levels entry in [2] (setting [9]) is “decrease”. Further, the PARP levels entry in [3] (setting [9]) is on record as “elevated PARP levels”.
In the case of `O=C1CC2(CCCC2)CC(=O)N1CCCCN1CCN(c2ncccn2)CC1` [Buspirone], the “changes in GSH” value in [4] (setting [10]) is “viability dependent changes in GSH”.
Take `CCCCS(=N)(=O)CCC(N)C(=O)O` (stereo not shown) [Buthionine sulfoximine (BSO), Buthionine sulfoximine]: the “changes in GSH” value in data set [4] (independently from viability, less profound in serum-free media) is reported as “strong decrease in GSH”.
In the case of `O=C(O)Cc1ccccc1Nc1c(Cl)cccc1Cl` [Diclofenac], the “changes in GSH” value in [4] (setting [10]) is reported as “viability dependent changes in GSH”.
On to `CN(C)C(=N)N=C(N)N` [Metformin], for which the “RNA Pol II levels” value in data set [1] (highest concentration tested, Advanced DMEM/F12) is recorded as “slight decrease”. Also, the “elevation of intracellular drug response markers” value with HepG2 cells [5] (all seven markers) is given as “did not result in elevated markers”.
As to `CCc1nn(CCCN2CCN(c3cccc(Cl)c3)CC2)c(=O)n1CCOc1ccccc1` [Nefazodone], the “changes in GSH” value in [4] (setting [10]) is “viability dependent changes in GSH”.
In the case of `CC(=O)O[C@H]1C(=O)[C@@]2(C)[C@H]([C@H](OC(=O)c3ccccc3)[C@]3(O)C[C@H](OC(=O)[C@H](O)[C@@H](NC(=O)c4ccccc4)c4ccccc4)C(C)=C1C3(C)C)[C@]1(OC(C)=O)CO[C@@H]1C[C@@H]2O` [Paclitaxel], the “changes in GSH” value in data set [4] (at high concentrations, increase significantly lower in both serum-free media) is reported as “increase in GSH”.
As for `C1CCC(C(CC2CCCCN2)C2CCCCC2)CC1` (stereo not shown) [Perhexiline], the “mitochondrial toxicity call (IC50Glc/IC50Gal fold change vs two-fold threshold)” value in the data set on HepG2 cells [6] was “identified as a potential mitochondrial toxin”. In addition, the “concentrations at which cell death occurred” value in the data set with HepG2 cells [5] (multiple markers drastically reduced or below detection limit) is reported as not below 16.7 µM. In data set [4] (setting [10]), the “changes in GSH” value was “viability dependent changes in GSH”. Moreover, the PARP level entry in data set [3] (Advanced DMEM/F12 only) is “significant increase in PARP”.
In the case of `C/C=C(/C)C(=O)O[C@H]1C(C)=C2[C@H]([C@@H]1OC(=O)CCCCCCC)[C@@](C)(OC(C)=O)C[C@H](OC(=O)CCC)[C@@]1(O)[C@H]2OC(=O)[C@@]1(C)O` [Thapsigargin], the “changes in GSH” value in data set [4] (at low concentrations, increase significantly lower in both serum-free media) is given as “increase in GSH”.
Regarding `Cc1c2oc3c(C)ccc(C(=O)N[C@@H]4C(=O)N[C@H](C(C)C)C(=O)N5CCC[C@H]5C(=O)N(C)CC(=O)N(C)[C@@H](C(C)C)C(=O)O[C@@H]4C)c3nc-2c(C(=O)N[C@@H]2C(=O)N[C@H](C(C)C)C(=O)N3CCC[C@H]3C(=O)N(C)CC(=O)N(C)[C@@H](C(C)C)C(=O)O[C@@H]2C)c(N)c1=O` [actinomycin D, Actinomycin D] (I: T[dV]P[Sar][NMeV] / II: T[dV]P[Sar][NMeV]; ester I:1-I:C, II:1-II:C; linker I:N-II:N via Actinocin(9to1)), in the data set on p-serin 422 of EIF4B, the EIF4B levels entry is given as “significant decrease”. The “RNA Pol II levels” value in [1] (setting [8]) was “significant decrease”. Moreover, the “fold change (response, Figure 7C)” value is 11.3 in data set [3] (Advanced DMEM/F12), 6.6 in [3] (TCM) and 3.1 in [3] (standard medium).
In the case of `CO/C1=C\C(C)=C\[C@@H](C)[C@@H](O)[C@@H](C)C/C(C)=C/C=C/[C@H](OC)[C@@H]([C@@H](C)[C@@H](O)[C@H](C)[C@@]2(O)C[C@@H](O)[C@H](C)[C@@H](C(C)C)O2)OC1=O` [bafilomycin, Bafilomycin A1], the LC3B levels result in the data set on LC3B (autophagy marker) (similar response in all culture conditions) is “strong increase in LC3B levels”.
As to `CC(=O)N(O)CCCCCNC(=O)CCC(=O)N(O)CCCCCNC(=O)CCC(=O)N(O)CCCCCN` [deferoxamine, Deferoxamin Mesylat], the HIF-1-alpha levels entry in [7] (Advanced DMEM/F12, treated vs. untreated cells) was “no significant increase in HIF-1-alpha levels”; in data set [7] (TCM) it was “elevated HIF-1-alpha levels”; in data set [7] (standard medium) it was “elevated HIF-1-alpha levels”. Also, the PARP level entry in [3] (serum-free media) is given as “not observed”; in data set [3] (standard medium) it was “increased PARP level”.
As for `COC1=C2C[C@@H](C)C[C@H](OC)[C@H](O)[C@@H](C)/C=C(\C)[C@H](OC(N)=O)[C@@H](OC)/C=C\C=C(/C)C(=O)NC(=CC1=O)C2=O` [geldanamycin, Geldanamycin], the figures for the “fold change (response, Figure 7B)” value in [2] (Advanced DMEM/F12), in data set [2] (TCM) and in data set [2] (standard medium) were 20.6, 8.7 and 7.4, respectively.
